{"source": "paper PMC8742467", "about": "“Therapeutical interference with the epigenetic landscape of germ cell tumors: a comparative drug study and new mechanistical insights” (Clinical Epigenetics, 2022)", "type_in_all_cases": "cell-based, Human", "key": {"fibroblast control cells": {"system": "fibroblast control cells", "test": "Flow cytometry apoptosis (Annexin V/PI), fibroblasts", "details": "EC50, 16 h", "description": "(§1) For Annexin V/PI staining, cells were washed with Annexin V Binding Buffer before being resuspended in 70 µl Annexin V Binding Buffer and 2.5 μl Annexin V FITC-conjugate (both Miltenyi Biotec, Bergisch Gladbach, Germany) and 15 µg PI (Sigma-Aldrich, Taufkirchen, Germany) and incubated in the dark at room temperature for 15 min. 500 µl of Annexin V Binding Buffer was added before measurement. For the cell cycle analysis, cells were washed with PBS (phosphate buffered saline), fixed by ice cold 70% ethanol and stained with 2 µg/ml PI and 200 µg/ml RNaseA (Quiagen, Hilden, Germany 100 mg/ml) in PBS shortly before every measurement. At least 5 × 10^4 cells were counted and analyzed using the MACSQuant software v 2.13.0."}, "GCT cell lines": {"system": "GCT cell lines", "test": "XTT cell viability assay, GCT cell lines (pre-screen / summary)", "details": "first pre-screen, XTT; read-out: EC50", "description": "The […] (XTT) assays were performed as described previously. In summary, for GCT and fibroblast cell lines 5 × 10^3 cells (3 × 10^3 for UC, PCa and RCC cell lines) per 96-well were seeded and different drug concentrations (see Additional file 2: Fig. S2, Additional file 3: Fig. S3) or corresponding solvents were added to the cells the following day. For drug details see Additional file 12: Table S2 C. Each condition was analyzed in four technical replicates and EC50 values were calculated by GraphPad Prism v8."}, "CC (JAR)": {"system": "CC (JAR)", "test": "Flow cytometry apoptosis (Annexin V/PI), CC", "details": "EC50, 16 h", "description": "as §1"}, "YST (GCT72)": {"system": "YST (GCT72)", "test": "Flow cytometry apoptosis (Annexin V/PI), YST", "details": "EC50, 16 h", "description": "as §1"}, "GCT cells": {"system": "GCT cells", "test": "Flow cytometry cell cycle (PI), GCT cells", "details": "EC50, 16 h", "description": "as §1"}}, "data": [{"compound": "Cc1ccc(-n2sc3ccccc3c2=O)cc1", "note": "[PBIT]", "values": [{"measurement": "apoptosis induction in fibroblast control cells", "setting": "fibroblast control cells", "value": "only a weak apoptosis induction"}, {"measurement": "EC50", "setting": "GCT cell lines", "value": "≤ 50", "unit": "µM"}, {"measurement": "apoptosis induction in JAR", "setting": "CC (JAR)", "value": "negligible"}, {"measurement": "apoptosis induction in GCT72", "setting": "YST (GCT72)", "value": "negligible"}, {"measurement": "cell cycle phase accumulation in GCT cells", "setting": "GCT cells", "value": "accumulated in the G0/G1 phase"}]}]}
